# Laboratory results: ChEMBL document CHEMBL1128688, “Synthesis and biological evaluation of a series of substituted benzo[a]phenanthridines as agonists at D1 and D2 dopamine receptors” (J Med Chem, 1995)
# Tests used:
# [1] = biological target: Adenylate cyclase type 5 (Rattus norvegicus) (UniProt Q04400); experiment: Intrinsic activity measured as ability to stimulate dopamine sensitive Adenylate cyclase activity was measured in rat striatum.; assay type: functional, tissue-based
# [2] = biological target: D(1A) dopamine receptor (Rattus norvegicus) (UniProt P18901); experiment: Binding affinity for dopamine receptor D1 in rat striatal homogenate
# [3] = biological target: D(2) dopamine receptor (Rattus norvegicus) (UniProt P61169); experiment: Binding affinity for Dopamine receptor D2 of rat striatal homogenate
# [4] = biological target: Dopamine receptors; D1 & D2 (Rattus norvegicus) (UniProt P18901+P61169); experiment: Relative binding affinity for dopamine receptors D1 and D2 in rat striatal homogenates
# Chain of D(2) dopamine receptor (Rattus norvegicus) (P61169 whole entry): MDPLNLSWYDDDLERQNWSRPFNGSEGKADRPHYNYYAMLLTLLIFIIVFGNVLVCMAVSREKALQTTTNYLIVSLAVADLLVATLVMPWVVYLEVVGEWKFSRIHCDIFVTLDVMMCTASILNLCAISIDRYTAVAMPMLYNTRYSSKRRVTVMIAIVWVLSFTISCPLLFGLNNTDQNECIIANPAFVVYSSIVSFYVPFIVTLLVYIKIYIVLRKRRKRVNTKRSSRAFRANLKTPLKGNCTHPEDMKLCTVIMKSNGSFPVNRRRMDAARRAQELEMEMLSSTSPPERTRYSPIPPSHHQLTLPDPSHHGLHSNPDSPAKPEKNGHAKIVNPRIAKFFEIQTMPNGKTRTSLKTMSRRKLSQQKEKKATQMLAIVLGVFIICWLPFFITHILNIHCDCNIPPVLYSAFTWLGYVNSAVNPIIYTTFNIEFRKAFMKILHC
# Chain of D(1A) dopamine receptor (Rattus norvegicus) (P18901 whole entry): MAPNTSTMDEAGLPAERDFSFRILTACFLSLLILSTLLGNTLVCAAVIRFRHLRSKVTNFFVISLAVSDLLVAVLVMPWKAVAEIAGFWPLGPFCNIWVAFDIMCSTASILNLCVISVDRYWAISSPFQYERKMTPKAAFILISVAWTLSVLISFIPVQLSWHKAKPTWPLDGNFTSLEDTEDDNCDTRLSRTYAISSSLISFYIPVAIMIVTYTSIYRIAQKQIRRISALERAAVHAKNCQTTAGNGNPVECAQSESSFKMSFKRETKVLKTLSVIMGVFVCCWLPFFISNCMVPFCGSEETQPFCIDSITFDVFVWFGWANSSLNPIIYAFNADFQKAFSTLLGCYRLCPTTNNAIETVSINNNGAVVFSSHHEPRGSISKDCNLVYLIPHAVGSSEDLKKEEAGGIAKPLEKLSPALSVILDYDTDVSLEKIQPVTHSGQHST
# Chain of Adenylate cyclase type 5 (Rattus norvegicus) (Q04400 whole entry): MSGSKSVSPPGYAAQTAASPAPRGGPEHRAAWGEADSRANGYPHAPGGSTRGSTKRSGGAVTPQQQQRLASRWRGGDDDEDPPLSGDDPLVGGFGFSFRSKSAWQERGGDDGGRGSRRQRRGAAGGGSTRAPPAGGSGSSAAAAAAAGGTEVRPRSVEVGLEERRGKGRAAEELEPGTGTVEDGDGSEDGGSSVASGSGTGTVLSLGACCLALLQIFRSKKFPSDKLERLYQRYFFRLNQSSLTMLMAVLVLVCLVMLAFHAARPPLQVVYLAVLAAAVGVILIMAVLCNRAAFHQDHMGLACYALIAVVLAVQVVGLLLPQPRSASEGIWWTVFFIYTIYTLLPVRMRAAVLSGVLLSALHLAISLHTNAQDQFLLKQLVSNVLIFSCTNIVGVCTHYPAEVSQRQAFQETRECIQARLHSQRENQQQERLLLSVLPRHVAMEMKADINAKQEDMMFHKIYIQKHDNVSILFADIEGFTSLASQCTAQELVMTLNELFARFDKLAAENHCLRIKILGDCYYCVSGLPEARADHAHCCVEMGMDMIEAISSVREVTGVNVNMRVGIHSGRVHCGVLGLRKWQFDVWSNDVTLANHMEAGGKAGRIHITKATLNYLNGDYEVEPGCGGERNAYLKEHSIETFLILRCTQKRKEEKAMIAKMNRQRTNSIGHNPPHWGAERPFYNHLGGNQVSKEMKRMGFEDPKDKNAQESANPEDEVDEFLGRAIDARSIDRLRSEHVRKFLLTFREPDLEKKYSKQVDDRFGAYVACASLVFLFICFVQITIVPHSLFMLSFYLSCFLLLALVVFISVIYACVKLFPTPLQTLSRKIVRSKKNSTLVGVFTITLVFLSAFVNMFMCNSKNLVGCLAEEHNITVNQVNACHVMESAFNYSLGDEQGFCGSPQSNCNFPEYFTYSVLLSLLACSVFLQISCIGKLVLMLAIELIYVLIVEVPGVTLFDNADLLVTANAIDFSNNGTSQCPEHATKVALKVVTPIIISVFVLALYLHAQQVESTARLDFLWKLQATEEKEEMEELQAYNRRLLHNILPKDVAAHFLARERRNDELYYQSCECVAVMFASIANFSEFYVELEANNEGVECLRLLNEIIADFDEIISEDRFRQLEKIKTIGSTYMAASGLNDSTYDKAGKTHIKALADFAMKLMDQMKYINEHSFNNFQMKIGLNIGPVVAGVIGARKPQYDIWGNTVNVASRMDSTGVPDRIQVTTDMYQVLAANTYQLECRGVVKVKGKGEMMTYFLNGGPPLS
SMILES,Intrinsic activity [1] [%],K0.5 [2] [nM],K0.5 [3] [nM],Selectivity [4]
Cc1ccc2c(c1)CN[C@@H]1CCc3cc(O)c(O)cc3[C@@H]21,105,5.06,18,3.6
CN1CCc2cc(Cl)c(O)cc2[C@@H](c2ccccc2)C1,,,> 500,
CCCN1Cc2cc(C)ccc2[C@@H]2c3cc(O)c(O)cc3CC[C@H]21,20,181,29.4,0.16
CCCN1Cc2ccccc2[C@@H]2c3cc(O)c(O)cc3CC[C@H]21,40,180,25.7,
O=c1[nH]c2ccccc2n1CCCN1CCC(n2c(=O)[nH]c3cc(Cl)ccc32)CC1,,> 1000,1,< 1000
Oc1cc2c(cc1O)[C@H]1c3cc(-c4ccccc4)ccc3CN[C@@H]1CC2,60,187,90.2,0.5
Cc1ccc2c(c1)[C@@H]1c3cc(O)c(O)cc3CC[C@H]1NC2,91,8.66,,
Oc1ccc2c(c1)[C@@H]1c3cc(O)c(O)cc3CC[C@H]1NC2,95,18.8,194,10.3
Oc1cc2c(cc1O)[C@H]1c3ccccc3CN[C@@H]1CC2,95,,,
Oc1ccc2c(c1)CN[C@@H]1CCc3cc(O)c(O)cc3[C@@H]21,104,12.2,53.6,4.4
Cc1cccc2c1CN[C@@H]1CCc3cc(O)c(O)cc3[C@@H]21,80,6.58,18,2.7
CCc1ccc2c(c1)[C@@H]1c3cc(O)c(O)cc3CC[C@H]1NC2,103,29.2,423,14.5
CCCN1Cc2c(C)cccc2[C@@H]2c3cc(O)c(O)cc3CC[C@H]21,89,23.4,9.01,
